Measured values reported in patent US10730858B2, “Lactam, cyclic urea and carbamate, and triazolone derivatives as potent and selective rock inhibitors” (BRISTOL-MYERS SQUIBB COMPANY, priority 2016, dated 2020).

molecular target: ROCK2 (Homo sapiens, UniProt O75116); test: ROCK2 assay (Caliper LABCHIP peptide phosphorylation, kinase inhibition); assay type: biochemical; details: 5 μM ATP, 1.5 μM peptide substrate
Protocol: The effectiveness of compounds of the present invention as ROCK inhibitors can be determined in a 30 μL assay containing 20 mM HEPES, pH 7.5, 20 mM MgCl2, 0.015% Brij-35, 4 mM DTT, 5 μM ATP and 1.5 μM peptide substrate (FITC-AHA-AKRRRLSSLRA-OH) (SEQ ID NO. 1). Compounds were dissolved in DMSO so that the final concentration of DMSO was <2%, and the reaction was initiated with Rho kinase variants. After incubation, the reaction was terminated by the addition of EDTA and the phosphorylated and non-phosphorylated peptides separated using a LABCHIP® 3000 Reader (Caliper Life Sciences). […] Compounds were tested in dose-response format, and the inhibition of kinase activity was calculated at each concentration of compound. The inhibition data were fit using a curve-fitting program to determine the IC50; i.e., the concentration of compound required to inhibit 50% of kinase activity.
Representative Examples were tested in the ROCK2 assay described above and found having ROCK2 inhibitory activity. The ranges of the ROCK2 IC50 values are as follows: ROCK2 IC50: ++++ (<10 nM) +++ (10-100 nM) ++ (100-500 nM) + (500-2000 nM)

Chain of ROCK2 (O75116 whole entry, species assumed): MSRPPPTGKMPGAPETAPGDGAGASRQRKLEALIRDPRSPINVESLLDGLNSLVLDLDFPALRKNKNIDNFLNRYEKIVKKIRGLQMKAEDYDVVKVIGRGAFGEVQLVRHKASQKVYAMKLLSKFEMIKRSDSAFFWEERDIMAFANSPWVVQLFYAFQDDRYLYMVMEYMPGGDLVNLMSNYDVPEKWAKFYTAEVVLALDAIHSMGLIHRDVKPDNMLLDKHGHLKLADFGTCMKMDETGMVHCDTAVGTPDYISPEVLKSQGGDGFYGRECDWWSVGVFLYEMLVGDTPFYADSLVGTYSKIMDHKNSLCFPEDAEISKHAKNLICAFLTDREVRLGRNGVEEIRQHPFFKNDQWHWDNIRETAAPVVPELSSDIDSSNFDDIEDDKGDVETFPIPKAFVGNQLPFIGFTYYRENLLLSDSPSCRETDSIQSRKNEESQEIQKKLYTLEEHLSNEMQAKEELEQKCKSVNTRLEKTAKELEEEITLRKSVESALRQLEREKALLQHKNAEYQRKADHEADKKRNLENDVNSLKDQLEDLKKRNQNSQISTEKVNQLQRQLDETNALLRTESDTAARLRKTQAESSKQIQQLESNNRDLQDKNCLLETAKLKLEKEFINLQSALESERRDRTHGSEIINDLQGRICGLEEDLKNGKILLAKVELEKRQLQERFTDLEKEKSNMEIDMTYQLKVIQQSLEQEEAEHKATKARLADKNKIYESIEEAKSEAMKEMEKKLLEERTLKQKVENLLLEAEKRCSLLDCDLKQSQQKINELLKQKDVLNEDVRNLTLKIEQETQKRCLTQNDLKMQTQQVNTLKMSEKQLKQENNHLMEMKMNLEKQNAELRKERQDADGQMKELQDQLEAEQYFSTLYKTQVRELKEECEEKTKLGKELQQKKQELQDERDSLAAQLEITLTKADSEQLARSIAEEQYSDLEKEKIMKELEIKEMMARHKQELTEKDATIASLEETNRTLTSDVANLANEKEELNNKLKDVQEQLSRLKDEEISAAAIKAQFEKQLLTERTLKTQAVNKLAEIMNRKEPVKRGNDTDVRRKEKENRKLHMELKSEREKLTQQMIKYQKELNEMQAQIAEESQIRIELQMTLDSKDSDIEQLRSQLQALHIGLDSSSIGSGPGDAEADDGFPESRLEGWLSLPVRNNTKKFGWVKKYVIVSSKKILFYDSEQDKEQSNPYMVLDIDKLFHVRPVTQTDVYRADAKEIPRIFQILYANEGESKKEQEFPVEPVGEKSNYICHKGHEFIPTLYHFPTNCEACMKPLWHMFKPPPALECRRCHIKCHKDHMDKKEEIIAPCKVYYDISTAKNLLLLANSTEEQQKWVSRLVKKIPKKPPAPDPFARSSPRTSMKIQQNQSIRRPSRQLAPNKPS

IC50, 10 to 100 nM:
O=C1C(Nc2cccc(OC(F)F)c2)CCN1c1ccc(-c2n[nH]c(=O)c3ccccc23)cc1 (single isomer, unassigned) [Example 55, 4-[4-(3-{[3-(difluoromethoxy)phenyl]amino}-2-oxopyrrolidin-1-yl)phenyl]-1,2-dihydrophthalazin-1-one]
O=C1C(Nc2ccc3c(c2)OCCCO3)CCN1c1ccc(-c2n[nH]c(=O)c3ccccc23)cc1 (single isomer, unassigned) [Example 76, 4-(4-{3-[(3,4-dihydro-2H-1,5-benzodioxepin-7-yl)amino]-2-oxopyrrolidin-1-yl}phenyl)-1,2-dihydrophthalazin-1-one]
O=C1C(Nc2ccc3c(c2)OCCCO3)CCN1c1ccc(-c2n[nH]c(=O)c3ccccc23)cc1 (single isomer, unassigned) [Example 77, 4-(4-{3-[(3,4-dihydro-2H-1,5-benzodioxepin-7-yl)amino]-2-oxopyrrolidin-1-yl}phenyl)-1,2-dihydrophthalazin-1-one]
O=C1C(Nc2cccc(OC(F)F)c2)CCN1c1ccc(-c2c[nH]c(=O)c3ccccc23)cc1 (single isomer, unassigned) [Example 78, 4-[4-(3-{[3-(difluoromethoxy)phenyl]amino}-2-oxopyrrolidin-1-yl)phenyl]-1,2-dihydroisoquinolin-1-one]
Cc1nc2ccc(NC3CCN(c4ccc(-c5n[nH]c(=O)c6ccccc56)cc4)C3=O)cc2s1 (single isomer, unassigned) [Example 81, 4-(4-{3-[(2-methyl-1,3-benzothiazol-6-yl)amino]-2-oxopyrrolidin-1-yl}phenyl)-1,2-dihydrophthalazin-1-one]
O=C1COc2cc(NC3CCN(c4ccc(-c5n[nH]c(=O)c6ccccc56)cc4)C3=O)ccc2N1 (single isomer, unassigned) [Example 83, 7-({2-oxo-1-[4-(4-oxo-3,4-dihydrophthalazin-1-yl)phenyl]pyrrolidin-3-yl}amino)-3,4-dihydro-2H-1,4-benzoxazin-3-one]
O=C1N(Cc2ccccc2)CCN1c1ccc(-c2n[nH]c(=O)c3ccccc23)cc1 [Example 10, 4-[4-(3-benzyl-2-oxoimidazolidin-1-yl)phenyl]-1,2-dihydrophthalazin-1-one]
O=C1N(c2ccc(-c3n[nH]c(=O)c4ccccc34)cc2)CCN1c1cccnc1 [Example 11, 4-{4-[2-oxo-3-(pyridin-3-yl)imidazolidin-1-yl]phenyl}-1,2-dihydrophthalazin-1-one]
O=C1N(c2ccc(-c3n[nH]c(=O)c4ccccc34)cc2)CCN1c1ccccn1 [Example 12, 4-{4-[2-oxo-3-(pyridin-2-yl)imidazolidin-1-yl]phenyl}-1,2-dihydrophthalazin-1-one]
O=C1OC(Cc2ccccc2)CN1c1ccc(-c2n[nH]c(=O)c3ccccc23)cc1 (centres unmarked) [Example 13, 4-[4-(5-benzyl-2-oxo-1,3-oxazolidin-3-yl)phenyl]-1,2-dihydrophthalazin-1-one]
O=C1OC(c2ccccc2)CN1c1ccc(-c2n[nH]c(=O)c3ccccc23)cc1 (centres unmarked) [Example 15, 4-[4-(2-oxo-5-phenyl-1,3-oxazolidin-3-yl)phenyl]-1,2-dihydrophthalazin-1-one]

IC50, 500 to 2000 nM:
O=C1C(C(=O)N2CCc3ccccc32)CCN1c1ccc(-c2n[nH]c(=O)c3ccccc23)cc1 (centres unmarked) [Example 3, 4-{4-[3-(2,3-dihydro-1H-indole-1-carbonyl)-2-oxopyrrolidin-1-yl]phenyl}-1,2-dihydrophthalazin-1-one]
O=C(C1CCN(c2ccc(-c3n[nH]c(=O)c4ccccc34)cc2)C1=O)N1Cc2ccccc2C1 (centres unmarked) [Example 5, 4{-4-[3-(2,3-dihydro-1H-isoindole-2-carbonyl)-2-oxopyrrolidin-1-yl]phenyl}-1,2-dihydrophthalazin-1-one]
O=C1C(c2ccc(-c3n[nH]c(=O)c4ccccc34)cc2)CCN1Cc1ccccc1 (centres unmarked) [Example 8, 4-[4-(1-benzyl-2-oxopyrrolidin-3-yl)phenyl]-1,2-dihydrophthalazin-1-one]

IC50, 100 to 500 nM:
O=C1C(c2ccccc2)CCN1c1ccc(-c2n[nH]c(=O)c3ccccc23)cc1 (centres unmarked) [Example 1, 4-[4-(2-oxo-3-phenylpyrrolidin-1-yl)phenyl]-1,2-dihydrophthalazin-1-one]
O=C1CC(c2ccccc2)CN1c1ccc(-c2n[nH]c(=O)c3ccccc23)cc1 (centres unmarked) [Example 4, 4-[4-(2-oxo-4-phenylpyrrolidin-1-yl)phenyl]-1,2-dihydrophthalazin-1-one]
O=C(Nc1ccccc1)C1CCN(c2ccc(-c3n[nH]c(=O)c4ccccc34)cc2)C1=O (centres unmarked) [Example 6, 2-oxo-1-[4-(4-oxo-3,4-dihydrophthalazin-1-yl)phenyl]-N-phenylpyrrolidine-3-carboxamide]
O=C(NCc1ccccc1)C1CCN(c2ccc(-c3n[nH]c(=O)c4ccccc34)cc2)C1=O (centres unmarked) [Example 7, N-benzyl-2-oxo-1-[4-(4-oxo-3,4-dihydrophthalazin-1-yl)phenyl]pyrrolidine-3-carboxamide]
O=C1C(c2ccc(-c3n[nH]c(=O)c4ccccc34)cc2)CCN1c1ccccc1 (centres unmarked) [Example 9, 4-[4-(2-oxo-1-phenylpyrrolidin-3-yl)phenyl]-1,2-dihydrophthalazin-1-one]
O=C1OCC(c2ccccc2)N1c1ccc(-c2n[nH]c(=O)c3ccccc23)cc1 (centres unmarked) [Example 14, 4-[4-(2-oxo-4-phenyl-1,3-oxazolidin-3-yl)phenyl]-1,2-dihydrophthalazin-1-one]

IC50, < 10 nM:
O=C1C(Nc2cccc(OC(F)F)c2)CCN1c1ccc(-c2n[nH]c(=O)c3ccccc23)cc1 (racemic) [Example 30, 4-[4-(3-{[3-(difluoromethoxy)phenyl]amino}-2-oxopyrrolidin-1-yl)phenyl]-1,2-dihydrophthalazin-1-one]
O=C1C(Nc2cccc(OC(F)F)c2)CCN1c1ccc(-c2c[nH]c(=O)c3ccccc23)cc1 (racemic) [Example 58, 4-[4-(3-{[3-(difluoromethoxy)phenyl]amino}-2-oxopyrrolidin-1-yl)phenyl]-1,2-dihydroisoquinolin-1-one]
O=C1COc2cc(NC3CCN(c4ccc(-c5n[nH]c(=O)c6ccccc56)cc4)C3=O)ccc2N1 (racemic) [Example 62, 7-({2-oxo-1-[4-(4-oxo-3,4-dihydrophthalazin-1-yl)phenyl]pyrrolidin-3-yl}amino)-3,4-dihydro-2H-1,4-benzoxazin-3-one]
Cc1nc2ccc(NC3CCN(c4ccc(-c5n[nH]c(=O)c6ccccc56)cc4)C3=O)cc2s1 (racemic) [Example 66, 4-(4-{3-[(2-methyl-1,3-benzothiazol-6-yl)amino]-2-oxopyrrolidin-1-yl}phenyl)-1,2-dihydrophthalazin-1-one]
O=C1C(Oc2cccc(OC(F)(F)F)c2)CCN1c1ccc(-c2n[nH]c(=O)c3ccccc23)cc1 (racemic) [Example 73, 4-(4-{2-oxo-3-[3-(trifluoromethoxy)phenoxy]pyrrolidin-1-yl}phenyl)-1,2-dihydrophthalazin-1-one]
O=C1C(Nc2cccc(OC(F)F)c2)CCN1c1ccc(-c2n[nH]c(=O)c3ccccc23)cc1 (single isomer, unassigned) [Example 56, 4-[4-(3-{[3-(difluoromethoxy)phenyl]amino}-2-oxopyrrolidin-1-yl)phenyl]-1,2-dihydrophthalazin-1-one]
O=C1C(Nc2cccc(OC(F)F)c2)CCN1c1ccc(-c2c[nH]c(=O)c3ccccc23)cc1 (single isomer, unassigned) [Example 79, 4-[4-(3-{[3-(difluoromethoxy)phenyl]amino}-2-oxopyrrolidin-1-yl)phenyl]-1,2-dihydroisoquinolin-1-one]
Cc1nc2ccc(NC3CCN(c4ccc(-c5n[nH]c(=O)c6ccccc56)cc4)C3=O)cc2s1 (single isomer, unassigned) [Example 80, 4-(4-{3-[(2-methyl-1,3-benzothiazol-6-yl)amino]-2-oxopyrrolidin-1-yl}phenyl)-1,2-dihydrophthalazin-1-one]
O=C1COc2cc(NC3CCN(c4ccc(-c5n[nH]c(=O)c6ccccc56)cc4)C3=O)ccc2N1 (single isomer, unassigned) [Example 82, 7-({2-oxo-1-[4-(4-oxo-3,4-dihydrophthalazin-1-yl)phenyl]pyrrolidin-3-yl}amino)-3,4-dihydro-2H-1,4-benzoxazin-3-one]
O=C1C(Oc2cccc(OC(F)(F)F)c2)CCN1c1ccc(-c2n[nH]c(=O)c3ccccc23)cc1 (single isomer, unassigned) [Example 84, 4-(4-{2-oxo-3-[3-(trifluoromethoxy)phenoxy]pyrrolidin-1-yl}phenyl)-1,2-dihydrophthalazin-1-one]
O=C1C(Oc2cccc(OC(F)(F)F)c2)CCN1c1ccc(-c2n[nH]c(=O)c3ccccc23)cc1 (single isomer, unassigned) [Example 85, 4-(4-{2-oxo-3-[3-(trifluoromethoxy)phenoxy]pyrrolidin-1-yl}phenyl)-1,2-dihydrophthalazin-1-one]
O=C1N(c2ccccc2)CCN1c1ccc(-c2n[nH]c(=O)c3ccccc23)cc1 [Example 2, 4-[4-(2-oxo-3-phenylimidazolidin-1-yl)phenyl]-1,2-dihydrophthalazin-1-one]
